Values quoted from earlier work as cited in PMC11071064 (Nuclear medicine and biology, 2022).

Tests used:
[1] = pH 7.4
RIPK1 [2] = conditions: read-out: IC50 for binding toward RIPK1
RIPK1 [3] = conditions: read-out: EC50 (potency)
[4] = not given; remark: listed apart in the source

solubility [1] | IC50 (RIPK1 [2]) [µM] | log D | EC50 (RIPK1 [3]) [µM] | metabolic stability t1/2 [4] [min] | Compound
~ 450 μM | 0.001 | 3.8 | – | – | CN1C(=O)[C@@H](NC(=O)c2n[nH]c(Cc3ccccc3)n2)COc2ccccc21 [Compound 4]
– | – | – | 0.21 | < 5 | CN1C(=O)NC(Cc2c[nH]c3c(Cl)cccc23)C1=O (stereo not shown) [Nec-1s]
– | – | – | 0.49 | < 5 | CN1C(=O)C(Cc2c[nH]c3ccccc23)NC1=S (stereo not shown) [Nec-1]
